This is an account of results in ChEMBL document CHEMBL1145418, “Cerebrosides and tocopherol trimers from the seeds of Euryale ferox” (J Nat Prod, 2007).

System in one data set: not listed separately
Briefly: (§1) Toxicity against brine shrimp after 24 hr by brine shrimp lethality test. The format is organism-based. The following applies: artemia, in vivo.
A word on the LC50: it is the concentration that kills 50% of the test population. The low end stands for greater toxicity, the high end for lower toxicity. Molecule `CCCCCCC/C=C/CC/C=C/[C@@H](O)[C@H](CO[C@@H]1O[C@H](CO)[C@@H](O)[C@H](O)[C@H]1O)NC(=O)[C@H](O)CCCCCCCCCCCCCCCCCCCCCC` displayed an LC50 at 24 h of 200 µM.
As for `CCCCCCC/C=C/CC/C=C/[C@@H](O)[C@H](CO[C@@H]1O[C@H](CO)[C@@H](O)[C@H](O)[C@H]1O)NC(=O)[C@H](O)CCCCCCCCCCCCCCCCCCCC`, the LC50 at 24 h came to 170 µM.

The next data set relates to Artemia. The data set is described as §1. In kind it is organism-based. The following applies: in vivo, 24 h.
On to `CC1=C(C)[C@]23Oc4c(C)c(C)c5c(c4C[C@]2(CC[C@@](C)(CCCC(C)CCCC(C)CCCC(C)C)O3)C2(Cc3c4c(c(C)c(C)c3O2)O[C@](C)(CCCC(C)CCCC(C)CCCC(C)C)CC4)C1=O)CC[C@@](C)(CCCC(C)CCCC(C)CCCC(C)C)O5` (stereo partly specified) [FEROTOCOTRIMER D], for which the Activity entry is reported as “Non-toxic”.
Same read-out and setting: next, `CC1=C(C)[C@@]23Oc4c(C)c(C)c5c(c4C[C@@]2(CC[C@@](C)(CCCC(C)CCCC(C)CCCC(C)C)O3)C2(Cc3c4c(c(C)c(C)c3O2)O[C@](C)(CCCC(C)CCCC(C)CCCC(C)C)CC4)C1=O)CC[C@@](C)(CCCC(C)CCCC(C)CCCC(C)C)O5` (stereo partly specified) [FEROTOCOTRIMER C]: “Non-toxic”; `CC1=C(C)[C@@]23Oc4c(C)c(C)c5c(c4C[C@@]2(CC[C@@](C)(CCCC(C)CCCC(C)CCCC(C)C)O3)C2(CCc3c4c(c(C)c(C)c3O2)O[C@](C)(CCCC(C)CCCC(C)CCCC(C)C)CC4)C1=O)CC[C@@](C)(CCCC(C)CCCC(C)CCCC(C)C)O5` (stereo partly specified) [TOCOPHEROL TRIMER IVB]: “Non-toxic”; `CC1=C(C)[C@]23Oc4c(C)c(C)c5c(c4C[C@]2(CC[C@@](C)(CCCC(C)CCCC(C)CCCC(C)C)O3)C2(CCc3c4c(c(C)c(C)c3O2)O[C@](C)(CCCC(C)CCCC(C)CCCC(C)C)CC4)C1=O)CC[C@@](C)(CCCC(C)CCCC(C)CCCC(C)C)O5` (stereo partly specified) [TOCOPHEROL TRIMER IVA]: “Non-toxic”.
